The results in this text go back to patent US9029391B2 (priority 2011, dated 2015).

The test relates to HIV. Briefly: MT4 Assay (anti-HIV activity). In kind it is cell-based. Particulars: Human immunodeficiency virus 1, 96 h, read-out: HIV MT4 Assay IC50, HTLV-1 transformed cell line MT-4, cell titer glo, 10 point dose response curve. The essentials:
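MT-4 cells (HTLV-1 transformed) were used for antiviral activity and cytotoxicity, run in parallel, with luminescence read by CellTiter-Glo 96 hours later. Percent inhibition was expressed against the no-compound control. IC50s came from 10-point curves of 3-4-fold serial dilutions spanning >1000-fold.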

SMILES strings stand for the structures. pIC50: −log10 of the molar value.

For `CCn1c(C(OC(C)(C)C)C(=O)O)c(-c2ccc3c(c2)CCCO3)c2ccccc2c1=O` (centres unmarked) [Example 65, 2-(tert-butoxy)-2-[4-(3,4-dihydro-2H-1-benzopyran-6-yl)-2-ethyl-1-oxo-1,2-dihydroisoquinolin-3-yl]acetic acid], the pIC50 is 5.84.

For `Cc1ccc2c(=O)n(C)c(C(OC(C)(C)C)C(=O)O)c(-c3ccc(C)c(C)c3)c2c1` (centres unmarked) [Example 55, 2-(tert-butoxy)-2-[4-(3,4-dimethylphenyl)-2,6-dimethyl-1-oxo-1,2-dihydroisoquinolin-3-yl]acetic acid], the pIC50 was 5.59.

`Cc1ccc(-c2c(C(OC(C)(C)C)C(=O)O)n(C)c(=O)c3cc(CNC(=O)C(=O)O)ccc23)cc1C` (centres unmarked) [Example 186, 2-(tert-butoxy)-2-(7-((carboxyformamido)methyl)-4-(3,4-dimethylphenyl)-2-methyl-1-oxo-1,2-dihydroisoquinolin-3-yl)acetic acid]: the pIC50 was 4.30.

For `Cc1ccc(-c2c([C@H](OC(C)(C)C)C(=O)O)n(C)c(=O)c3ccccc23)cc1C` [Example 3, (S)-2-(tert-butoxy)-2-(4-(3,4-dimethylphenyl)-2-methyl-1-oxo-1,2-dihydroisoquinolin-3-yl)acetic acid], the pIC50 was 6.36.

In the case of `CCNC(=O)NCc1ccc2c(-c3ccc(C)c(C)c3)c(C(OC(C)(C)C)C(=O)O)n(C)c(=O)c2c1` (centres unmarked) [Example 185, 2-(tert-butoxy)-2-(4-(3,4-dimethylphenyl)-7-((3-ethylureido)methyl)-2-methyl-1-oxo-1,2-dihydroisoquinolin-3-yl)acetic acid], the pIC50 was 4.43.

Regarding `Cc1c(-c2c(C(OC(C)(C)C)C(=O)O)n(C)c(=O)c3cc(OCc4ccc(C(F)(F)F)cc4)ccc23)ccc2c1CCCO2` (centres unmarked) [Example 132, 2-(tert-butoxy)-2-[2-methyl-4-(5-methyl-3,4-dihydro-2H-1-benzopyran-6-yl)-1-oxo-7-{[4-(trifluoromethyl)phenyl]-methoxy}-1,2-dihydroisoquinolin-3-yl]acetic acid], the negative-log IC50 (pIC50) was 6.51.

`Cc1ccc2c(-c3cc(F)c4c(c3C)CCCO4)c(C(OC(C)(C)C)C(=O)O)n(C)c(=O)c2c1` (centres unmarked) [Example 124, 2-(tert-butoxy)-2-[4-(8-fluoro-5-methyl-3,4-dihydro-2H-1-benzopyran-6-yl)-2,7-dimethyl-1-oxo-1,2-dihydroisoquinolin-3-yl]acetic acid]: the negative-log IC50 (pIC50) is 6.89.

Consider `Cc1c(-c2c(C(OC(C)(C)C)C(=O)O)n(C)c(=O)c3cc(OCc4c(F)cc(F)cc4F)ccc23)ccc2c1CCCO2` (centres unmarked) [Example 99, 2-(tert-butoxy)-2-[2-methyl-4-(5-methyl-3,4-dihydro-2H-1-benzopyran-6-yl)-1-oxo-7-[(2,4,6-trifluorophenyl)methoxy]-1,2-dihydroisoquinolin-3-yl]acetic acid], for which the pIC50 is 6.89.

In the case of `Cc1c(-c2c(C(OC(C)(C)C)C(=O)O)n(C)c(=O)c3cc(OCc4ccccn4)ccc23)ccc2c1CCCO2` (centres unmarked) [Example 129, 2-(tert-butoxy)-2-[2-methyl-4-(5-methyl-3,4-dihydro-2H-1-benzopyran-6-yl)-1-oxo-7-(pyridin-2-ylmethoxy)-1,2-dihydroisoquinolin-3-yl]acetic acid], the pIC50 was 6.70.

On to `Cn1c(C(OC(C)(C)C)C(=O)O)c(-c2ccc3c(c2)OCCCO3)c2ccccc2c1=O` (centres unmarked) [Example 61, 2-(tert-butoxy)-2-[4-(3,4-dihydro-2H-1,5-benzodioxepin-7-yl)-2-methyl-1-oxo-1,2-dihydroisoquinolin-3-yl]acetic acid], for which the pIC50 was 5.06.

Turning to `Cn1c(C(OC(C)(C)C)C(=O)O)c(-c2ccc(OC3CCCCC3)cc2)c2ccccc2c1=O` (centres unmarked) [Example 24, 2-(tert-butoxy)-2-{4-[4-(cyclohexyloxy)phenyl]-2-methyl-1-oxo-1,2-dihydroisoquinolin-3-yl}acetic acid], the negative-log IC50 (pIC50) is 4.60.
